Values of other authors, collected in patent US20170027865A1, “Dry Pharmaceutical Compositions for Topical Delivery of Oral Medications, Nasal Delivery and to Treat Ear Disorders” (CMPD LICENSING LLC, priority 2013, published 2017).

Experiments:
[1] = test system: Proteus vulgaris; conditions: Gram: neg
[2] = test system: Enterobacter aerogenes; conditions: Gram: neg
[3] = test system: Viridans group streptococci; conditions: Gram: pos
[4] = test system: Moraxella catarrhalis; conditions: Gram: neg
[5] = test system: Haemophilus parainfluenzae; conditions: Gram: neg
[6] = test system: Peptostreptococcus; conditions: Gram: pos
[7] = test system: Streptococcus agalactiae; conditions: Gram: pos
[8] = test system: Streptococcus pyogenes; conditions: Gram: pos
[9] = test system: Bordetella pertussis; conditions: Gram: neg
[10] = test system: Enterobacter sakazakii; conditions: Gram: neg
[11] = test system: Corynebacterium jeikeium; conditions: Gram: pos
[12] = test system: Enterococcus faecium; conditions: Gram: pos
[13] = test system: Clostridium difficile; conditions: Gram: anaer
[14] = test system: Providencia rettgeri; conditions: Gram: neg
[15] = test system: Legionella pneumophila; conditions: Legionella pneumophila; Gram: neg
[16] = test system: Pseudomonas fluorescens; conditions: Gram: neg
[17] = test system: Pseudomonas aeruginosa; conditions: Gram: neg
[18] = test system: Enterococcus faecalis; conditions: Gram: pos
[19] = test system: Providencia stuartii; conditions: Gram: neg
[20] = test system: Mycoplasma pneumoniae; conditions: Gram: n/a
[21] = test system: Streptococcus pneumoniae; conditions: Gram: pos
[22] = test system: Klebsiella (Calymmatobacterium) granulomatis; conditions: Gram: neg
[23] = test system: Vibrio cholerae; conditions: Gram: neg
[24] = test system: Diphtheroids; conditions: Gram: pos
[25] = test system: Chlamydia psittaci; conditions: Chlamydia psittaci; Gram: n/a
[26] = test system: Staphylococcus epidermidis; conditions: Gram: pos
[27] = test system: Serratia marcescens; conditions: Gram: neg
[28] = test system: Escherichia coli; conditions: Gram: neg
[29] = test system: Chlamydia pneumoniae; conditions: Gram: n/a
[30] = test system: Bacteroides fragilis; conditions: Gram: anaer
[31] = test system: Neisseria meningitidis; conditions: Gram: neg
[32] = test system: Enterobacter cloacae; conditions: Gram: neg
[33] = test system: Corynebacterium urealyticum; conditions: Gram: pos
[34] = test system: Brucella species; conditions: Brucella species; Gram: neg
[35] = test system: Neisseria gonorrhoeae; conditions: Gram: neg
[36] = test system: Chlamydia trachomatis; conditions: Gram: n/a
[37] = test system: Proteus mirabilis; conditions: Gram: neg
[38] = test system: Staphylococcus aureus (MSSA); conditions: Gram: pos
[39] = test system: Methicillin Resistant Staph aureus (MRSA); conditions: Gram: pos
[40] = test system: Klebsiella pneumoniae; conditions: Gram: neg
[41] = test system: Klebsiella oxytoca; conditions: Gram: neg
[42] = test system: Campylobacter jejuni; conditions: Gram: neg
[43] = test system: Francisella tularensis; conditions: Francisella tularensis; Gram: neg
[44] = test system: Citrobacter diversus; conditions: Gram: neg
[45] = test system: Acinetobacter baumannii; conditions: Gram: neg
[46] = test system: Morganella morganii; conditions: Gram: neg
[47] = test system: Citrobacter freundii; conditions: Gram: neg
[48] = test system: Haemophilus influenzae; conditions: Gram: neg
[49] = test system: Acinetobacter calcoaceticus; conditions: Gram: neg
[50] = test system: Clostridium perfringens; conditions: Clostridium perfringens; Gram: anaer
[51] = test system: Rickettsiae; conditions: Rickettsiae; Gram: neg
[52] = test system: Acinetobacter lwoffii; conditions: Gram: neg
[53] = test system: Bartonella bacilliformis; conditions: Gram: neg
[54] = test system: Shigella dysenteriae; conditions: Gram: neg
[55] = test system: Shigella sonnei; conditions: Gram: neg
[56] = test system: Haemophilus ducreyi; conditions: Gram: neg
[57] = test system: Shigella boydii; conditions: Gram: neg
[58] = test system: Yersinia pestis; conditions: Yersinia pestis; Gram: neg
[59] = test system: Shigella flexneri; conditions: Gram: neg
[60] = test system: Candida species

In the case of colistimethate, the Expected coverage [1] is listed as “no”, the Expected coverage [2] is listed as “yes” and the Expected coverage [3] is listed as “no”. The Expected coverage [4] was “no”, the Expected coverage [5] was “no” and the Expected coverage [6] was “no”. The Expected coverage [7] was “no”, the Expected coverage [8] was “no” and the Expected coverage [9] was “no”. The Expected coverage [10] was “yes”, the Expected coverage [11] was “no” and the Expected coverage [12] was “no”. For the same compound, the Expected coverage [13] was “no”, the Expected coverage [14] was “no” and the Expected coverage [15] was “no”. For the same compound, the Expected coverage [16] was “yes”, the Expected coverage [17] was “yes” and the Expected coverage [18] was “no”. The Expected coverage [19] was “no”, the Expected coverage [20] was “no” and the Expected coverage [21] was “no”. The Expected coverage [22] was “yes”, the Expected coverage [23] was “no” and the Expected coverage [24] was “no”. The Expected coverage [25] was “no”, the Expected coverage [26] was “no” and the Expected coverage [27] was “no”. The Expected coverage [28] was “yes”, the Expected coverage [29] was “no” and the Expected coverage [30] was “no”. The Expected coverage [31] was “no”, the Expected coverage [32] was “yes” and the Expected coverage [33] was “no”. The Expected coverage [34] was “no”, the Expected coverage [35] was “no” and the Expected coverage [36] was “no”. For the same compound, the Expected coverage [37] was “no”, the Expected coverage [38] was “no” and the Expected coverage [39] was “no”. For the same compound, the Expected coverage [40] was “yes” and the Expected coverage [41] was “yes”.
For `CC[C@H]1OC(=O)[C@H](C)[C@@H](O[C@H]2C[C@@](C)(OC)[C@@H](O)[C@H](C)O2)[C@H](C)[C@@H](O[C@@H]2O[C@H](C)C[C@H](N(C)C)[C@H]2O)[C@](C)(O)C[C@@H](C)CN(C)[C@H](C)[C@@H](O)[C@]1(C)O` [Azithromycin, azithromycin], the Expected coverage [42] is given as “yes”, the Expected coverage [1] is given as “no” and the Expected coverage [43] is given as “no”. For the same compound, the Expected coverage [2] was “no”, the Expected coverage [44] was “no” and the Expected coverage [45] was “no”. The Expected coverage [4] was “yes”, the Expected coverage [7] was “yes” and the Expected coverage [8] was “yes”. For the same compound, the Expected coverage [46] was “no”, the Expected coverage [9] was “yes” and the Expected coverage [10] was “no”. For the same compound, the Expected coverage [11] was “no”, the Expected coverage [12] was “no” and the Expected coverage [13] was “no”. The Expected coverage [14] was “no”, the Expected coverage [15] was “yes” and the Expected coverage [16] was “no”. The Expected coverage [17] was “no”, the Expected coverage [18] was “no” and the Expected coverage [19] was “no”. For the same compound, the Expected coverage [20] was “yes”, the Expected coverage [21] was “yes” and the Expected coverage [47] was “no”. The Expected coverage [22] was “no”, the Expected coverage [23] was “yes” and the Expected coverage [48] was “yes”. For the same compound, the Expected coverage [49] was “no”, the Expected coverage [25] was “yes” and the Expected coverage [50] was “no”. The Expected coverage [26] was “yes”, the Expected coverage [27] was “no” and the Expected coverage [28] was “no”. The Expected coverage [29] was “yes”, the Expected coverage [30] was “no” and the Expected coverage [31] was “yes”. For the same compound, the Expected coverage [32] was “no”, the Expected coverage [51] was “yes” and the Expected coverage [34] was “no”. The Expected coverage [52] was “no”, the Expected coverage [36] was “yes” and the Expected coverage [37] was “no”. The Expected coverage [38] was “yes”, the Expected coverage [39] was “no” and the Expected coverage [40] was “no”. For the same compound, the Expected coverage [41] was “no” and the Expected coverage [53] was “yes”.
In the case of `NC[C@H]1O[C@H](O[C@H]2[C@H](O)[C@@H](O[C@H]3O[C@H](CO)[C@@H](O)[C@H](N)[C@H]3O)[C@H](N)C[C@@H]2N)[C@H](N)C[C@@H]1O` [Tobramycin, tobramycin], the Expected coverage [54] is given as “yes”, the Expected coverage [42] is given as “yes” and the Expected coverage [1] is given as “yes”. The Expected coverage [55] was “yes”, the Expected coverage [2] was “yes” and the Expected coverage [3] was “no”. The Expected coverage [44] was “yes”, the Expected coverage [45] was “no” and the Expected coverage [4] was “yes”. The Expected coverage [6] was “no”, the Expected coverage [7] was “no” and the Expected coverage [56] was “yes”. The Expected coverage [8] was “no”, the Expected coverage [9] was “no” and the Expected coverage [57] was “yes”. For the same compound, the Expected coverage [10] was “yes”, the Expected coverage [11] was “no” and the Expected coverage [12] was “no”. For the same compound, the Expected coverage [13] was “no”, the Expected coverage [58] was “yes” and the Expected coverage [15] was “no”. For the same compound, the Expected coverage [16] was “yes”, the Expected coverage [17] was “yes” and the Expected coverage [18] was “no”. The Expected coverage [20] was “no”, the Expected coverage [21] was “no” and the Expected coverage [59] was “yes”. The Expected coverage [47] was “yes”, the Expected coverage [22] was “yes” and the Expected coverage [23] was “no”. For the same compound, the Expected coverage [48] was “yes”, the Expected coverage [24] was “no” and the Expected coverage [49] was “no”. For the same compound, the Expected coverage [25] was “no”, the Expected coverage [50] was “no” and the Expected coverage [26] was “no”. The Expected coverage [27] was “yes”, the Expected coverage [28] was “yes” and the Expected coverage [29] was “no”. For the same compound, the Expected coverage [30] was “no”, the Expected coverage [31] was “no” and the Expected coverage [32] was “yes”. The Expected coverage [33] was “no”, the Expected coverage [35] was “no” and the Expected coverage [52] was “no”. For the same compound, the Expected coverage [36] was “no”, the Expected coverage [37] was “yes” and the Expected coverage [38] was “no”. The Expected coverage [39] was “no”, the Expected coverage [40] was “yes” and the Expected coverage [41] was “yes”.
In the case of `C[C@@H]1[C@H](O)[C@@H](C)/C=C/C=C/CC/C=C/C=C/C=C/C=C/C(O[C@H]2O[C@H](C)[C@@H](O)[C@H](N)[C@@H]2O)CC2O[C@](O)(CC(O)C(O)CCC(O)CC(O)CC(O)CC(=O)O[C@H]1C)CC(O)C2C(=O)O` (some centres unmarked) [Nystatin, nystatin], the Expected coverage [60] is given as “yes”.
